According to patent US20120178766A1, “FUROPYRIMIDINEDIONE DERIVATIVES AS TRPAI MODULATORS” (priority 2009, published 2012):

How the values were obtained:
human TRPA1 = biological target: T1, human TRPA1 (Homo sapiens, UniProt O75762); assay: 45Calcium uptake assay: inhibition of AITC induced cellular uptake of radioactive calcium, human TRPA1 expressing CHO cells; type: cell-based; details: AITC 30 μM
T1 construct: expressed in transfected cells; host or cells: CHO cells (G-418 selection)
Summary of the method: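 CHO cells expressing TRPA1 were preincubated 10 min with compound (0.5% DMSO final), then given AITC (30 μM human, 10 μM rat) plus 5 μCi/ml 45Ca2+ for 3 min. Lysate radioactivity measured by scintillation; IC50 obtained by nonlinear regression of % maximal response without antagonist.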

rat TRPA1 = biological target: T2, rat TRPA1 (Rattus norvegicus, UniProt Q6RI86); assay: 45Calcium uptake assay: inhibition of AITC induced cellular uptake of radioactive calcium, rat TRPA1 expressing CHO cells; type: cell-based; details: AITC 10 μM; for inhibition at 10 µM: 10.0 μM compound, read-out: rat TRPA1 Percentage inhibition at 10.0 μM; for inhibition at 1 µM: read-out: rat TRPA1 Percentage inhibition; for IC50: class symbols
T2 construct: expressed in transfected cells; host or cells: CHO cells (Zeocin selection)
Summary of the method: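 CHO cells expressing rat or human TRPA1 were pre-treated with compound for 10 min, then given AITC (30 μM human, 10 μM rat) plus 5 μCi/ml 45Ca2+ for 3 min; final DMSO 0.5%. Lysate radioactivity was counted by scintillation. IC50 came from nonlinear regression of concentration-response curves as % of maximal response.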

T2 sequence (Q6RI86 whole entry): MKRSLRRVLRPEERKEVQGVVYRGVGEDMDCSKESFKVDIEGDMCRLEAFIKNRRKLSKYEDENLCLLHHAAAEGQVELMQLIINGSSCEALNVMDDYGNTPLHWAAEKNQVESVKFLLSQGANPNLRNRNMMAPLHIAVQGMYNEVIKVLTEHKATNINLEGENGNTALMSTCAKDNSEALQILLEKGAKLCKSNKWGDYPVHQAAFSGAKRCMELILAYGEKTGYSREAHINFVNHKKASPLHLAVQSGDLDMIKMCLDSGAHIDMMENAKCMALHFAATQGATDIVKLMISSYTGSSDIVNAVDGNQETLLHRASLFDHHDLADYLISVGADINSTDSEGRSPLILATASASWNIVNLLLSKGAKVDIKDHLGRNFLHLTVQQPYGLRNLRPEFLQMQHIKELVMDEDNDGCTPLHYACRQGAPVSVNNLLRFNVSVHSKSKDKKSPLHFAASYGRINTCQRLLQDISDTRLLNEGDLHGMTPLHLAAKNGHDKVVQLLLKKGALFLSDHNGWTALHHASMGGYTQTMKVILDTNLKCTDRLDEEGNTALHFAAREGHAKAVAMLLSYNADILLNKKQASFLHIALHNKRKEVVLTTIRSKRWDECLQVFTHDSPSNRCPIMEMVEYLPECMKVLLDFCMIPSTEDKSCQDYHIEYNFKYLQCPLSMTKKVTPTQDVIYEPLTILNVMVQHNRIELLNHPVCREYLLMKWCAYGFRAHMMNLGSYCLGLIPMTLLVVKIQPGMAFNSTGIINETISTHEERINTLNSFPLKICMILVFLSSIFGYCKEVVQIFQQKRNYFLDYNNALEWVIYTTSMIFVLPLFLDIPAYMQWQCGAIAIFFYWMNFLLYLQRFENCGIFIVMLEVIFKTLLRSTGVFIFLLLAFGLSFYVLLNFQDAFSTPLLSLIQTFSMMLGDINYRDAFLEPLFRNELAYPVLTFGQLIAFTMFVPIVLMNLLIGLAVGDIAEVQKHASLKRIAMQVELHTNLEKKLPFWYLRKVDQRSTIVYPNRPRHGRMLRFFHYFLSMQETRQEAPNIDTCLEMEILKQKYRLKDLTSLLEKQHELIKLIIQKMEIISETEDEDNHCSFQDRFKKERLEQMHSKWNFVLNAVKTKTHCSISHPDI
T1 sequence (O75762 whole entry): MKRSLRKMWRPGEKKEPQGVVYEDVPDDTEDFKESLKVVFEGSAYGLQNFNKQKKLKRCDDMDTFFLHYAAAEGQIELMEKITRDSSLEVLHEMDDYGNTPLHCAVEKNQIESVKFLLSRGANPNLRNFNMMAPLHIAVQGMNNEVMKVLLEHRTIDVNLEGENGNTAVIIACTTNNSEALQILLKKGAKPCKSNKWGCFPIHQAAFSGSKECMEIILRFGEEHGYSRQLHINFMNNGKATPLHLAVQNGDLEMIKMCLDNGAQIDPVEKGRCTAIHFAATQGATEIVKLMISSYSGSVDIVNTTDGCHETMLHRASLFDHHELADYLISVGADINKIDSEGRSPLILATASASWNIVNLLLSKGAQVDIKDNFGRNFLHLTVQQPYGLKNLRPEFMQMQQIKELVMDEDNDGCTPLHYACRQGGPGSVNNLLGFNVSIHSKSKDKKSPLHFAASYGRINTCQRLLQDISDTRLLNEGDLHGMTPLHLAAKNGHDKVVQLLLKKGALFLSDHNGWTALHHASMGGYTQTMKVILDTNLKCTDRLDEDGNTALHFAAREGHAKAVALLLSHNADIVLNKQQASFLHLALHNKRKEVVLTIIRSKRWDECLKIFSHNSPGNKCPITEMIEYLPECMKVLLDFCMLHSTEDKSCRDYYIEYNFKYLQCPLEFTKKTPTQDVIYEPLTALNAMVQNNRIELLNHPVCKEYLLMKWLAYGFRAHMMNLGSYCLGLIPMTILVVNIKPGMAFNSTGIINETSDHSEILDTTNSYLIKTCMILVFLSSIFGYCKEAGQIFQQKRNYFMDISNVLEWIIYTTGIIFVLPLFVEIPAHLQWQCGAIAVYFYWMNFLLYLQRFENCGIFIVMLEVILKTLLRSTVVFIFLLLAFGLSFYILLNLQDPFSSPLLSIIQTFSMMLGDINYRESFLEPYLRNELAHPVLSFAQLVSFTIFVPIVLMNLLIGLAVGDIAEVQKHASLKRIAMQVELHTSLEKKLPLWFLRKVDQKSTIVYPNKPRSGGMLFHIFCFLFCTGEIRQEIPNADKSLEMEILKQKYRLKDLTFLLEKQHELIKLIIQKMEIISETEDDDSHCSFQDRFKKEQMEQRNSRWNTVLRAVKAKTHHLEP

Row | SMILES | IC50 (human TRPA1; class symbols) | inhibition at 10 µM (rat TRPA1) | inhibition at 1 µM (rat TRPA1) | IC50 (rat TRPA1) | inhibition at 1 µM (human TRPA1; 1.0 μM compound, read-out: human TRPA1 Percentage inhibition at 1.0 μM) | inhibition at 10 µM (human TRPA1; 10.0 μM compound, read-out: human TRPA1 Percentage inhibition at 10.0 μM) | IC50 (human TRPA1; numeric values)
1 | Cc1oc2c(c1CC(=O)Nc1nc(-c3cc(C(F)(F)F)ccc3F)cs1)c(=O)n(C)c(=O)n2C [Example 63, N1-{4-[2-Fluoro-5-(trifluoromethyl)phenyl]-1,3-thiazol-2-yl}-2-(1,3,6-trimethyl-2,4-dioxo-1,2,3,4-tetrahydrofuro[2,3-d]pyrimidin-5-yl)acetamide] | 50 to 100 nM | 99.8% | 97.6% | – | – | – | –
2 | Cc1oc2c(c1CC(=O)Nc1nc(-c3ccc(Cl)c(C(F)(F)F)c3)cs1)c(=O)n(C)c(=O)n2C [Example 64, N1-{4-[4-Chloro-3-(trifluoromethyl)phenyl]-1,3-thiazol-2-yl}-2-(1,3,6-trimethyl-2,4-dioxo-1,2,3,4-tetrahydrofuro[2,3-d]pyrimidin-5-yl)acetamide] | < 50 nM | – | – | < 50 nM | – | – | –
3 | Cc1oc2c(c1CC(=O)Nc1nc(-c3cc(Cl)cc(C(F)(F)F)c3)cs1)c(=O)n(C)c(=O)n2C [Example 65, N1-{4-[3-Chloro-5-(trifluoromethyl)phenyl]-1,3-thiazol-2-yl}-2-(1,3,6-trimethyl-2,4-dioxo-1,2,3,4-tetrahydrofuro[2,3-d]pyrimidin-5-yl)acetamide] | < 50 nM | 99.8% | 99.8% | 50 to 100 nM | – | – | –
4 | Cc1oc2c(c1CC(=O)Nc1nc(-c3ccc(C(F)(F)F)c(Cl)c3)cs1)c(=O)n(C)c(=O)n2C [Example 66, N1-{4-[3-Chloro-4-(trifluoromethyl)phenyl]-1,3-thiazol-2-yl}-2-(1,3,6-trimethyl-2,4-dioxo-1,2,3,4-tetrahydrofuro[2,3-d]pyrimidin-5-yl)acetamide] | – | 98.5% | 99.8% | – | 99.4% | 99.8% | –
5 | Cc1oc2c(c1CC(=O)Nc1nc(-c3ccc(OC(F)(F)F)c(F)c3)cs1)c(=O)n(C)c(=O)n2C [Example 67, N1-{4-[3-Fluoro-4-(trifluoromethoxy)phenyl]-1,3-thiazol-2-yl}-2-(1,3,6-trimethyl-2,4-dioxo-1,2,3,4-tetrahydrofuro[2,3-d]pyrimidin-5-yl)acetamide] | < 50 nM | – | – | < 50 nM | – | – | –
6 | Cc1oc2c(c1CC(=O)Nc1nc(-c3ccc(F)c(OC(F)(F)F)c3)cs1)c(=O)n(C)c(=O)n2C [Example 68, N1-{4-[4-Fluoro-3-(trifluoromethoxy)phenyl]-1,3-thiazol-2-yl}-2-(1,3,6-trimethyl-2,4-dioxo-1,2,3,4-tetrahydrofuro[2,3-d]pyrimidin-5-yl)acetamide] | < 50 nM | – | – | < 50 nM | – | – | –
7 | Cc1oc2c(c1CC(=O)Nc1nc(-c3ccc(Cl)c(OC(F)(F)F)c3)cs1)c(=O)n(C)c(=O)n2C [Example 69, N1-{4-[4-Chloro-3-(trifluoromethoxy)phenyl]-1,3-thiazol-2-yl}-2-(1,3,6-trimethyl-2,4-dioxo-1,2,3,4-tetrahydrofuro[2,3-d]pyrimidin-5-yl)acetamide] | < 50 nM | – | – | < 50 nM | – | – | –
8 | Cc1oc2c(c1CC(=O)Nc1nc(-c3ccc(OC(F)(F)F)c(Cl)c3)cs1)c(=O)n(C)c(=O)n2C [Example 70, N1-{4-[3-Chloro-4-(trifluoromethoxy)phenyl]-1,3-thiazol-2-yl}-2-(1,3,6-trimethyl-2,4-dioxo-1,2,3,4-tetrahydrofuro[2,3-d]pyrimidin-5-yl)acetamide] | < 50 nM | – | – | < 50 nM | – | – | –
9 | Cc1oc2c(c1CC(=O)Nc1nc(-c3cc(Cl)cc(OC(F)(F)F)c3)cs1)c(=O)n(C)c(=O)n2C [Example 71] | < 50 nM | – | – | 50 to 100 nM | – | – | –
10 | Cc1oc2c(c1CC(=O)Nc1nc(-c3ccc(OC(F)F)c(Cl)c3)cs1)c(=O)n(C)c(=O)n2C [Example 72, N1-{4-[3-Chloro-4-(difluoromethoxy)phenyl]-1,3-thiazol-2-yl}-2-(1,3,6-trimethyl-2,4-dioxo-1,2,3,4-tetrahydrofuro[2,3-d]pyrimidin-5-yl)acetamide] | < 50 nM | 100% | 100% | > 100 nM | – | – | –
11 | Cc1oc2c(c1CC(=O)Nc1nc(-c3ccc(OCC(F)(F)F)c(F)c3)cs1)c(=O)n(C)c(=O)n2C [Example 73, N1-{4-[3-Fluoro-4-(2,2,2-trifluoroethoxy)phenyl]-1,3-thiazol-2-yl}-2-(1,3,6-trimethyl-2,4-dioxo-1,2,3,4-tetrahydrofuro[2,3-d]pyrimidin-5-yl)acetamide] | < 50 nM | 100% | 100% | – | – | – | –
12 | Cc1oc2c(c1CC(=O)Nc1nc(-c3ccc(OCC(F)(F)F)c(Cl)c3)cs1)c(=O)n(C)c(=O)n2C [Example 74, N1-{4-[3-Chloro-4-(2,2,2-trifluoroethoxy)phenyl]-1,3-thiazol-2-yl}-2-(1,3,6-trimethyl-2,4-dioxo-1,2,3,4-tetrahydrofuro[2,3-d]pyrimidin-5-yl)acetamide] | < 50 nM | 100% | 100% | < 50 nM | – | – | –
13 | Cc1oc2c(c1CC(=O)Nc1nc(-c3cc(F)c(F)cc3F)cs1)c(=O)n(C)c(=O)n2C [Example 75, N1-[4-(2,4,5-Trifluorophenyl)-1,3-thiazol-2-yl]-2-(1,3,6-trimethyl-2,4-dioxo-1,2,3,4-tetrahydrofuro[2,3-d]pyrimidin-5-yl)acetamide] | – | – | – | 50 to 100 nM | – | – | 18.5 nM
14 | Cc1oc2c(c1CC(=O)Nc1nc(-c3cc(F)c(F)c(F)c3)cs1)c(=O)n(C)c(=O)n2C [Example 76, N1-[4-(3,4,5-Trifluorophenyl)-1,3-thiazol-2-yl]-2-(1,3,6-trimethyl-2,4-dioxo-1,2,3,4-tetrahydrofuro[2,3-d]pyrimidin-5-yl)acetamide] | – | – | – | 50 to 100 nM | – | – | 7.65 nM
15 | Cc1oc2c(c1CC(=O)Nc1nc(-c3ccc(F)c(F)c3F)cs1)c(=O)n(C)c(=O)n2C [Example 77, N1-[4-(2,3,4-Trifluorophenyl)-1,3-thiazol-2-yl]-2-(1,3,6-trimethyl-2,4-dioxo-1,2,3,4-tetrahydrofuro[2,3-d]pyrimidin-5-yl)acetamide] | – | 98.5% | 99.2% | – | – | – | 19.2 nM
16 | Cc1oc2c(c1CC(=O)Nc1nc(-c3ccc(F)c(Cl)c3F)cs1)c(=O)n(C)c(=O)n2C [Example 78, N1-[4-(3-Chloro-2,4-difluorophenyl)-1,3-thiazol-2-yl]-2-(1,3,6-trimethyl-2,4-dioxo-1,2,3,4-tetrahydrofuro[2,3-d]pyrimidin-5-yl)acetamide] | – | 94.8% | 94.5% | – | – | – | 34.5 nM
17 | Cc1oc2c(c1CC(=O)Nc1nc(-c3cc(F)c(OCC(C)(C)C)c(F)c3)cs1)c(=O)n(C)c(=O)n2C [Example 80] | – | – | – | < 50 nM | – | – | 3.63 nM
18 | Cc1oc2c(c1CC(=O)Nc1nc(-c3cc(F)c(OCC(C)C)c(F)c3)cs1)c(=O)n(C)c(=O)n2C [Example 81, N1-[4-(3,5-Difluoro-4-isobutoxyphenyl)-1,3-thiazol-2-yl]-2-(1,3,6-trimethyl-2,4-dioxo-1,2,3,4-tetrahydrofuro[2,3-d]pyrimidin-5-yl)acetamide] | – | 99.2% | 100% | 50 to 100 nM | – | – | 4.63 nM
19 | Cc1oc2c(c1CC(=O)Nc1nc(-c3cc(Cl)c(OCC(C)C)c(Cl)c3)cs1)c(=O)n(C)c(=O)n2C [Example 82, N1-[4-(3,5-Dichloro-4-isobutoxyphenyl)-1,3-thiazol-2-yl]-2-(1,3,6-trimethyl-2,4-dioxo-1,2,3,4-tetrahydrofuro[2,3-d]pyrimidin-5-yl)acetamide] | – | 100% | 100% | < 50 nM | – | – | 3.34 nM
20 | Cc1oc2c(c1CC(=O)Nc1nc(-c3ccc(F)c(C(F)(F)F)c3F)cs1)c(=O)n(C)c(=O)n2C [Example 83, N1-{4-[2,4-Difluoro-3-(trifluoromethyl)phenyl]-1,3-thiazol-2-yl}-2-(1,3,6-trimethyl-2,4-dioxo-1,2,3,4-tetrahydrofuro[2,3-d]pyrimidin-5-yl)acetamide] | – | – | – | < 50 nM | – | – | 4.52 nM
21 | Cc1oc2c(c1CC(=O)Nc1nc(-c3cc(F)c(C(F)(F)F)c(F)c3)cs1)c(=O)n(C)c(=O)n2C [Example 84, N1-{4-[3,5-Difluoro-4-(trifluoromethyl)phenyl]-1,3-thiazol-2-yl}-2-(1,3,6-trimethyl-2,4-dioxo-1,2,3,4-tetrahydrofuro[2,3-d]pyrimidin-5-yl)acetamide] | – | – | – | < 50 nM | – | – | 4.16 nM
22 | Cc1oc2c(c1CC(=O)Nc1nc(-c3cc(F)c(OC(F)F)c(F)c3)cs1)c(=O)n(C)c(=O)n2C [Example 85, N1-{4-[3,5-Difluoro-4-(difluoromethoxy)phenyl]-1,3-thiazol-2-yl}-2-(1,3,6-trimethyl-2,4-dioxo-1,2,3,4-tetrahydrofuro[2,3-d]pyrimidin-5-yl)acetamide] | – | 100% | 100% | – | – | – | 6.57 nM
23 | Cc1oc2c(c1CC(=O)Nc1nc(-c3cc(Cl)c(OC(F)F)c(Cl)c3)cs1)c(=O)n(C)c(=O)n2C [Example 86, N1-{4-[3,5-Dichloro-4-(difluoromethoxy)phenyl]-1,3-thiazol-2-yl}-2-(1,3,6-trimethyl-2,4-dioxo-1,2,3,4-tetrahydrofuro[2,3-d]pyrimidin-5-yl)acetamide] | – | 95.4% | 99.1% | < 50 nM | – | – | 4.11 nM
